From patent publication US4590061A, “Antimicrobial plaque disclosing agent” (priority 1985, dated 1986)
Read-outs that look alike come from different tables or passages of the source.

What was measured:
[1] = Approximate retention times in oral tissues
Description: The approximate retention times in oral tissues of six alkaloids found in extracts from Sanguinaria canadensis is shown in Table IV.

[2] = Visual plaque disclosure scoring in healthy volunteers (Table I); format: in vivo; conditions: for Mean Plaque Area Score, 1 Hour later / Mean Plaque Area Score, Baseline: visual assessment
Method: Sanguinarine chloride was compared to two standard disclosing dyes, erythrosine and sodium fluorescein. At weekly interval healthy volunteers underwent a 12-24 hour, no oral hygiene period. Subjects then used one of the following: erythrosine, sodium flourescein, or sanguinarine chloride. Subjects rinsed two times with 15 ml. of the rinse, while the erythrosine and sodium fluorescein were used according to customary practice. Color was evaluated under ambient light after erythrosine, under ambient light for sodium fluorescein, and under longwave UV fluorescent light for sanguinarine. The color was scored for location, amount, and area.
All of the disclosing agents colored soft dental deposits at gingival margins and at the dorsal surface of the tongue. […] Mean values of plaque were measured for all disclosants.
(§1) This was the oral rinse used for the tests described in Tables I, II, and III.

[3] = test system: human dental plaque forming microorganisms; assay: Reduction of dental plaque / inactivation of plaque forming microorganisms in vitro; format: cell-based
variety of microorganism = assay: Antimicrobial properties (general statement); format: cell-based
[4] = In vivo plaque retention of sanguinarine (HPLC)
Description: as §1

[5] = format: in vivo
Description: This would indicate that the retention of sanguinarine in plaque may be responsible for its clinical effectiveness in plaque assays, and that plaque may serve as a reservoir for sanguinarine.
as §1

[6] = alkaloids found in extracts from Sanguinaria canadensis
[7] = human, in vivo, po, In Vivo Plaque Retention of Sanguinarine

SMILES	Approximate Retention time (in oral tissues) [1, 6] [min]	Mean Plaque Area Score, 1 Hour later [2]	Mean Plaque Area Score, Baseline [2]	also measured
COc1ccc2c(c[n+](C)c3c4cc5c(cc4ccc23)OCO5)c1OC [Chelerythrine]				Approximate Retention time (in oral tissues) [1]: 16.5 to 17.0 min
COc1cc(OC)c2c(c[n+](C)c3c4cc5c(cc4ccc23)OCO5)c1OC [Chelilutine]	15.5 to 16.0			
COc1cc2c(c3c[n+](C)c4c5cc6c(cc5ccc4c13)OCO6)OCO2 [Chelirubine]	~7.5			
O=C1OC2(c3ccccc31)c1cc(I)c(O)c(I)c1Oc1c2cc(I)c(O)c1I [Erythrosine, reference compound]		2.18 ± 0.5	2.86 ± 0.43	
COc1cc2ccc3c4c(OC)cc(OC)c(OC)c4c[n+](C)c3c2cc1OC [Sanguilutine]	18.5 to 19.0			
C[n+]1cc2c3c(ccc2c2ccc4cc5c(cc4c21)OCO5)OCO3 [Sanguinarine chloride]		2.86 ± 0.26	2.87 ± 0.23	plaque disclosure ([2]; sanguinarine chloride mouthwash): disclosed plaque effectively; duration of disclosure ([2]; versus erythrosine and sodium fluorescein): lasted significantly longer than for the other two disclosing dyes; killing at 25 µg/mL ([3]; Homo sapiens, 25 micrograms per milliliter, read-out: reduction of dental plaque by inactivating plaque forming microorganisms): 100%; comparison with chlorhexidine in inhibition of human dental plaque forming microorganisms ([3]; in vitro, versus chlorhexidine (Hibitane)): compated favorably in vitro with chlorhexidine; antimicrobial properties (variety of microorganism): strong antimicrobial properties
C[n+]1cc2c3c(ccc2c2ccc4cc5c(cc4c21)OCO5)OCO3 [Sanguinarine]	9.5 to 10.0			level in plaque versus in vitro minimum inhibitory concentrations ([4]; HPLC, plaque): much higher in vitro minimum inhibitory concentrations; In Vivo Plaque Retention of Sanguinarine ([4]; human, in vivo, po, 1 h): 46 ug/g of wet plaque; concentration at 1 h [4, 7]: 56000 ng/g; concentration at 2 h [4, 7]: 27000 ng/g; levels in saliva relative to anti-glycolytic effect [5]: high enough to exert an anti-glycolytic effect on saliva
COc1cc2ccc3c4c(OC)cc5c(c4c[n+](C)c3c2cc1OC)OCO5 [Sanguirubine]	12.5 to 13.0			
O=C1OC2(c3ccc(O)cc3Oc3cc(O)ccc32)c2ccccc21 [Sodium Fluorescein, reference compound]		1.74 ± 0.45	2.84 ± 0.22	
